Assays:
Cytochrome P450 1A2 [1] = target: T1, Cytochrome P450 1A2 (Homo sapiens, UniProt P05177); assay: Inhibition of recombinant human CYP1A2 expressed in HEK293 cells using 3-cyano-7-ethoxycoumarin as substrate pretreated for 30 mins followed by substrate addition measured for 60 mins by fluorescence assay; format: ADME
T1 sequence (P05177 whole entry): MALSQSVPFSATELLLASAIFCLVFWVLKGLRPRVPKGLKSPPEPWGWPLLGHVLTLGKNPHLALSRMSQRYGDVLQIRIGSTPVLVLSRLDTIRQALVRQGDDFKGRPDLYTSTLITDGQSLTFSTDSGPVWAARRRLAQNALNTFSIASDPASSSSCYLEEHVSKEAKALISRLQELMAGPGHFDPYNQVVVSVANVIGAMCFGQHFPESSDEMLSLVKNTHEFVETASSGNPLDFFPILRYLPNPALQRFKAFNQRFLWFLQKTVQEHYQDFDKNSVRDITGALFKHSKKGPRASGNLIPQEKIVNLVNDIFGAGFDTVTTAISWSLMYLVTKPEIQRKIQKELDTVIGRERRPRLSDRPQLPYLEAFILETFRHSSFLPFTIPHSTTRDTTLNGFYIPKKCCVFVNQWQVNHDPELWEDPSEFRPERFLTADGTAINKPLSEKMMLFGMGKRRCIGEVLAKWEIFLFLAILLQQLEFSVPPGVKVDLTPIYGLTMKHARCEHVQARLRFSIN

Homo sapiens [2] = species on record: Homo sapiens; assay: Selectivity ratio of IC50 for recombinant human CYP1B1 expressed in HEK293 cells to IC50 for recombinant human CYP1A1 expressed in HEK293 cells; format: cell-based
Cytochrome P450 2D6 [3] = target: T2, Cytochrome P450 2D6 (Homo sapiens, UniProt P10635); assay: Inhibition of human CYP2D6 expressed in yeast microsomal membranes using 7-ethoxy-methyloxy-3-cyanocoumarin as substrate measured after 10 mins by fluorescence assay; format: ADME, cell membranes, Microsomal Membrane
Cytochrome P450 1B1 [4] = target: T3, Cytochrome P450 1B1 (Homo sapiens, UniProt Q16678); assay: Inhibition of recombinant human CYP1B1 expressed in HEK293 cells using 7-ethoxyresorufin as substrate pretreated for 30 mins followed by substrate addition measured for 60 mins by fluorescence assay; format: cell-based
T3 sequence (Q16678 whole entry): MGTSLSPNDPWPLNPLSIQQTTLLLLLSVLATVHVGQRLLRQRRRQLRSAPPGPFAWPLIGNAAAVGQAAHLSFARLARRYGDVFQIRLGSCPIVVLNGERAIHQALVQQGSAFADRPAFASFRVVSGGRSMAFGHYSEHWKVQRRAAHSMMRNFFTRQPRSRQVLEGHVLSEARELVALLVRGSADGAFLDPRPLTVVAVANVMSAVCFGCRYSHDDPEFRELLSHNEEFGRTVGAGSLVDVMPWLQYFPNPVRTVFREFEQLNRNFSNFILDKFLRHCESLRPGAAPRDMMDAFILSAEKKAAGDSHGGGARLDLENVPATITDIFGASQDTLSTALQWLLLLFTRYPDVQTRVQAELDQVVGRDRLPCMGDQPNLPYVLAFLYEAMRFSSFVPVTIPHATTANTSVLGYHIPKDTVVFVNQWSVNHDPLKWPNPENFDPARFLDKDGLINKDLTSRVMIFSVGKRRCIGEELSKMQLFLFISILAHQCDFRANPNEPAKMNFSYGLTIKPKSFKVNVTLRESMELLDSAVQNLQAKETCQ

Homo sapiens [5] = species on record: Homo sapiens; assay: Selectivity ratio of IC50 for recombinant human CYP1A2 expressed in HEK293 cells to IC50 for recombinant human CYP1A1 expressed in HEK293 cells; format: cell-based
Cytochrome P450 1B1 [6] = target: T3, Cytochrome P450 1B1; assay: Inhibition of human CYP1B1 expressed in yeast microsomal membranes using 7-ethoxyresorufin as substrate measured after 10 mins by fluorescence assay; format: cell membranes
Cytochrome P450 2C19 [7] = target: T4, Cytochrome P450 2C19 (Homo sapiens, UniProt P33261); assay: Inhibition of human CYP2C19 expressed in yeast microsomal membranes using 3-cyano-7-ethoxycoumarin as substrate measured after 10 mins by fluorescence assay; format: ADME, cell membranes, Microsomal Membrane
Cytochrome P450 1A1 [8] = target: T5, Cytochrome P450 1A1 (Homo sapiens, UniProt P04798); assay: Inhibition of recombinant human CYP1A1 expressed in HEK293 cells using 7-ethoxyresorufin as substrate pretreated for 30 mins followed by substrate addition measured for 60 mins by fluorescence assay; format: cell-based
T5 sequence (P04798 whole entry): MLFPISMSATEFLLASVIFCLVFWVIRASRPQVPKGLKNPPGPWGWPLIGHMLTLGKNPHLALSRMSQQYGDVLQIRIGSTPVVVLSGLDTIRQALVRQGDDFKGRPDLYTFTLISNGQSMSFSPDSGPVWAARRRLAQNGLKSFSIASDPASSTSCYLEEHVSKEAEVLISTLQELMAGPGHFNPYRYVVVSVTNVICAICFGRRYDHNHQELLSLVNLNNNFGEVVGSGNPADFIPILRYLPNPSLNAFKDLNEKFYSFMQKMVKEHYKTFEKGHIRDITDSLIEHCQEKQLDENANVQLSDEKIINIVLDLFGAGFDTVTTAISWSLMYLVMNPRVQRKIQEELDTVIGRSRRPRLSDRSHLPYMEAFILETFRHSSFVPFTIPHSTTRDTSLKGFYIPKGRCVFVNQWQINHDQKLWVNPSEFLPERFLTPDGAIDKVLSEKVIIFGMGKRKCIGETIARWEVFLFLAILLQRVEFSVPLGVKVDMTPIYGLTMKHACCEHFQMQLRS

Cytochrome P450 3A4 [9] = target: T6, Cytochrome P450 3A4 (Homo sapiens, UniProt P08684); assay: Inhibition of recombinant human CYP3A4 expressed in HEK293 cells using dibenzylfluorescein as substrate pretreated for 30 mins followed by substrate addition measured for 60 mins by fluorescence assay; format: ADME
Cytochrome P450 2D6 [10] = target: T2, Cytochrome P450 2D6; assay: Inhibition of recombinant human CYP2D6 expressed in HEK293 cells using 7-ethoxy-methyloxy-3-cyanocoumarin as substrate pretreated for 30 mins followed by substrate addition measured for 60 mins by fluorescence assay; format: ADME, cell-based
Cytochrome P450 1A2 [11] = target: T1, Cytochrome P450 1A2; assay: Inhibition of human CYP1A2 expressed in yeast microsomal membranes using 3-cyano-7-ethoxycoumarin as substrate measured after 10 mins by fluorescence assay; format: ADME, cell membranes, Microsomal Membrane
Cytochrome P450 2C9 [12] = target: T7, Cytochrome P450 2C9 (Homo sapiens, UniProt P11712); assay: Inhibition of human CYP2C9 expressed in yeast microsomal membranes using 3-cyano-7-ethoxycoumarin as substrate measured after 10 mins by fluorescence assay; format: ADME, cell membranes, Microsomal Membrane
Cytochrome P450 1A1 [13] = target: T5, Cytochrome P450 1A1; assay: Inhibition of human CYP1A1 expressed in yeast microsomal membranes using 7-ethoxyresorufin as substrate measured after 10 mins by fluorescence assay; format: cell membranes
Cytochrome P450 2C19 [14] = target: T4, Cytochrome P450 2C19; assay: Inhibition of recombinant human CYP2C19 expressed in HEK293 cells using 3-cyano-7-ethoxycoumarin as substrate pretreated for 30 mins followed by substrate addition measured for 60 mins by fluorescence assay; format: ADME
Cytochrome P450 2C9 [15] = target: T7, Cytochrome P450 2C9; assay: Inhibition of recombinant human CYP2C9 expressed in HEK293 cells using 3-cyano-7-ethoxycoumarin as substrate pretreated for 30 mins followed by substrate addition measured for 60 mins by fluorescence assay; format: ADME
[16] = target: T8, Aryl hydrocarbon receptor (Homo sapiens, UniProt P35869); assay: Antagonist activity at recombinant human eGFP-fused Ahr expressed in yeast cells co-expressing ARNT assessed as inhibition of benzo(a)pyrene-induced Ahr activation at 1 uM measured after 18 hrs by fluorescence assay; format: cell-based
T8 sequence (P35869 whole entry): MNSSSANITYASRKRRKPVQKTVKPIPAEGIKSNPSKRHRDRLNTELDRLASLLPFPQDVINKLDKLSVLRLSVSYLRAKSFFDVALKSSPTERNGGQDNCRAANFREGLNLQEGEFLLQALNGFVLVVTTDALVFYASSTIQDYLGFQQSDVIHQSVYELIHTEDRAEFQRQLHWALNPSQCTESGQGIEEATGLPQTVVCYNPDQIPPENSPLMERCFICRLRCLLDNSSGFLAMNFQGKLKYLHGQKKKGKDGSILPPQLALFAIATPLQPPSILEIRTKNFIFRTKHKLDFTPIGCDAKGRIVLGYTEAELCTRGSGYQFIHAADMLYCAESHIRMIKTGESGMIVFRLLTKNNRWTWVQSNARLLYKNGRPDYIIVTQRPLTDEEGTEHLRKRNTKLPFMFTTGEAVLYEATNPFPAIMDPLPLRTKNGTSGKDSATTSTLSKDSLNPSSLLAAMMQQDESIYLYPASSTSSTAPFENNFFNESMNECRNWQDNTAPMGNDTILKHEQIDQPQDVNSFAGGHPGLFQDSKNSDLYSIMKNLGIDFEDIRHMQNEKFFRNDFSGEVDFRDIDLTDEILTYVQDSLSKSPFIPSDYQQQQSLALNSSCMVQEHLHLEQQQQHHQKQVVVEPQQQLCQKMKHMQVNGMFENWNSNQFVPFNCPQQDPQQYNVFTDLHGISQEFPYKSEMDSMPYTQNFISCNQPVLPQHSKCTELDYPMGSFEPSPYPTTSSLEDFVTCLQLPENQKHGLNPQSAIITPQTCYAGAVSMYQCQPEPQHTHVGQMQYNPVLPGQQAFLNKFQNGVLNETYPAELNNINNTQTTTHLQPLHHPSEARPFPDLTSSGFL

Cytochrome P450 3A4 [17] = target: T6, Cytochrome P450 3A4; assay: Inhibition of human CYP3A4 expressed in yeast microsomal membranes using dibenzylfluorescein as substrate measured after 10 mins by fluorescence assay; format: ADME, cell membranes, Microsomal Membrane
Cytochrome P450 1A1 [18] = target: T5, Cytochrome P450 1A1; assay: Inhibition of recombinant human CYP1A1 expressed in HEK293 cells assessed as reduction in benzo(a)pyrene-induced toxicity by measuring increase in B[a]P EC50 at 2 times IC50 by MTT assay; format: cell-based
Cytochrome P450 1B1 [19] = target: T3, Cytochrome P450 1B1; assay: Inhibition of recombinant human CYP1B1 expressed in HEK293 cells assessed as potentiation of cisplatin-induced cytotoxicity by measuring reduction in cisplatin EC50 by MTT assay; format: cell-based

T6 sequence (P08684 whole entry): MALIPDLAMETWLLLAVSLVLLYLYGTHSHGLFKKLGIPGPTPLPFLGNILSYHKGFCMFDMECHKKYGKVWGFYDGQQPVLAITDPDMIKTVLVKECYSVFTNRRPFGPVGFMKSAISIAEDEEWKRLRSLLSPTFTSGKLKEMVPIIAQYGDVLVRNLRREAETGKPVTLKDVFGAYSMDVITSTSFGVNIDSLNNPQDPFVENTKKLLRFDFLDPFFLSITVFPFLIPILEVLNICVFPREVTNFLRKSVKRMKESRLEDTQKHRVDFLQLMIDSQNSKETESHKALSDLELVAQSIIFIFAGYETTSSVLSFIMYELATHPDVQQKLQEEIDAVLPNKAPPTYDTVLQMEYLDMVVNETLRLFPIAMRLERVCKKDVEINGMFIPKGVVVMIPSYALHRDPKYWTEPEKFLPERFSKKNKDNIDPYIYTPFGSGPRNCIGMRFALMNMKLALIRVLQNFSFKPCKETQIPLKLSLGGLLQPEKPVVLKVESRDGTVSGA
T4 sequence (P33261 whole entry): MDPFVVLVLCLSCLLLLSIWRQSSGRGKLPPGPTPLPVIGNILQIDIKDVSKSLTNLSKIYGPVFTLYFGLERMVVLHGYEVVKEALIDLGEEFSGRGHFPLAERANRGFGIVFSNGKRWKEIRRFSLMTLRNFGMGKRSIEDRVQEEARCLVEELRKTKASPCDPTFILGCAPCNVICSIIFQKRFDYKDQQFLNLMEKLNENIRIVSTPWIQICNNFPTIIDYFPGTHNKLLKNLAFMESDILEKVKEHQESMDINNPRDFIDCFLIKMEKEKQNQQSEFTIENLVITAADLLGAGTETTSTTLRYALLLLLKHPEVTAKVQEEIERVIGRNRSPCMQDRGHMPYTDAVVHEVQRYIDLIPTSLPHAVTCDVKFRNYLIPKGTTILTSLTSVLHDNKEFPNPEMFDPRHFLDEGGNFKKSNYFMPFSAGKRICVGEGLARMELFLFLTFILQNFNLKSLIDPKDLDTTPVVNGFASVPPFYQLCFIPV
T7 sequence (P11712 whole entry): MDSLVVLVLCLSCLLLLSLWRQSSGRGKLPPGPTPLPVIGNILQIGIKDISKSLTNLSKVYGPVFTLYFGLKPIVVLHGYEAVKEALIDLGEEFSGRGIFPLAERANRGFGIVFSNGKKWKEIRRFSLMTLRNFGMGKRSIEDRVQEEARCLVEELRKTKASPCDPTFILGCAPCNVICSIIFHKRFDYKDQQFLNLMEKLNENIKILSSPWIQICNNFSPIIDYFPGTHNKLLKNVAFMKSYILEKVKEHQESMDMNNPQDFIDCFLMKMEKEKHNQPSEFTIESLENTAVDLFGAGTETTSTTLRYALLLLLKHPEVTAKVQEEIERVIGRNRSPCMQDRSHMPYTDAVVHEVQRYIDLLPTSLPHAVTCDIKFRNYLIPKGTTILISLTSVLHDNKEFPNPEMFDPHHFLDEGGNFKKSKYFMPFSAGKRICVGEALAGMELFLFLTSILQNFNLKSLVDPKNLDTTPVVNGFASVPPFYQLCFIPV
T2 sequence (P10635 whole entry): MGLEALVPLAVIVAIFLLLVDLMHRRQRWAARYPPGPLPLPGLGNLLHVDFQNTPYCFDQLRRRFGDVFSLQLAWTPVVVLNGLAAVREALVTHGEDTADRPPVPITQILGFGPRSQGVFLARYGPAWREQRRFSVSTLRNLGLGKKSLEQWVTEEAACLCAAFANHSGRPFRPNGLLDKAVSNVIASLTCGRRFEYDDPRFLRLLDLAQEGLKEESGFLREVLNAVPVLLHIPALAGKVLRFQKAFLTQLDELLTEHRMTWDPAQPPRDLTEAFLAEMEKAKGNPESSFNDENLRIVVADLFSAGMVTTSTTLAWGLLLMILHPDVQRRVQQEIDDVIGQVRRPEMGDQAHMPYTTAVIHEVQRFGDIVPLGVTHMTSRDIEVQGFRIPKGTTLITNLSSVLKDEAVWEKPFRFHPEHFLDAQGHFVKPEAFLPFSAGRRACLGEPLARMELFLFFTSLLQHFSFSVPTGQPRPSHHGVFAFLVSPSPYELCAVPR

In the case of CCOc1cc(/C=C/C(=O)c2ccncc2)cc(OC)c1OCC, the IC50 (Cytochrome P450 1A2 [1]) is reported as 0.82 µM, the Ratio IC50 (Homo sapiens [2]) is reported as under 10 and the IC50 (Cytochrome P450 2D6 [3]) is reported as 15 µM. It also gave an IC50 (Cytochrome P450 1B1 [4]) of 3.07 µM, a Ratio IC50 (Homo sapiens [5]) of under 10 and an IC50 (Cytochrome P450 1B1 [6]) of 2.92 µM. It also gave an IC50 (Cytochrome P450 2C19 [7]) of over 20 µM, an IC50 (Cytochrome P450 1A1 [8]) of 0.065 µM and an IC50 (Cytochrome P450 3A4 [9]) of over 10 µM. The IC50 (Cytochrome P450 2D6 [10]) was over 10 µM, the IC50 (Cytochrome P450 1A2 [11]) was 0.78 µM and the IC50 (Cytochrome P450 2C9 [12]) was over 20 µM. For the same molecule, the IC50 (Cytochrome P450 1A1 [13]) was 0.065 µM, the IC50 (Cytochrome P450 2C19 [14]) was over 10 µM and the IC50 (Cytochrome P450 2C9 [15]) was over 10 µM. For the same molecule, the “inhibition (INH)” value [16] was “Active” and the IC50 (Cytochrome P450 3A4 [17]) was over 20 µM.
O=c1cc(-c2ccccc2)oc2c1ccc1ccccc12 [ALPHA-NAPHTHOFLAVONE] was tested, and the “inhibition (INH)” value (Cytochrome P450 1A1 [18]) was “Active” and the “inhibition (INH)” value (Cytochrome P450 1B1 [19]) was “Active”.

From ChEMBL document CHEMBL4177690, “(E)-3-(3,4,5-Trimethoxyphenyl)-1-(pyridin-4-yl)prop-2-en-1-one, a heterocyclic chalcone is a potent and selective CYP1A1 inhibitor and cancer chemopreventive agent” (Bioorg Med Chem Lett, 2017)
